Data reported in US20260207666A1, “CD38 AS INTEGRATION SITE FOR ENHANCED FUNCTION OF GENE-MODIFIED IMMUNE CELLS” (RESEARCH INSTITUTE AT NATIONWIDE CHILDREN'S HOSPITAL, priority 2022, published 2026).
“Also recorded” adds a separate entry of the source.

How the values were obtained:
[1] = tested on: primary AML cells; assay: Mass cytometry lysis assay; format: cell-based, human; settings: with ATRA, prior to co-culture with NK cells
Description: A primary AML patient cell sample (OSU leukemia tissue bank) was cultured in a 6-well plate (pre-coated with rat tail collagen [Corning]) in serum free media (SFEM) supplemented with a cytokine cocktail (IL-6, IL-3, FLT3, GMCSF, GCSF, and TPO at 6.66 ng/mL, EPO at 3.33 ng/mL, SCF at 20 ng/mL; Stem Cell Technologies). The primary AML samples were cultured for 24 hours with or without 10 nM ATRA. After 24 hours, wild-type or CD38^KO/CD38 CAR-NK cells were added at a ratio of 1:1 and co-cultured for 24 hours. Control wells were cultured in parallel. Cell were stained and events were acquired on the Helios CyTOF system (Fluidigm, Toronto, Canada). Cells were identified using markers and analyzed using SPADE.

[2] = tested on: CD38^KO NK cells; assay: Effect of ATRA on NK cell function or viability; format: cell-based, human
[3] = tested on: AML cell lines; assay: CD38 surface expression after ATRA treatment (flow cytometry); format: cell-based, human; settings: AML cell lines with lowest baseline CD38, 10 nM ATRA for 48 hours
From the text: (§1) Cells were stained in PBS buffer containing 2% FBS using anti-CD38/PE (Miltenyi Biotec, clone REA572), CD38 Fc Chimera Protein (R&D Systems, rhCD38) followed by secondary staining with Alexa Fluor 647 AffiniPure Goat Anti-Human IgG (Jackson ImmunoResearch), and Tonbo Ghost Dye 450 (Tonbo Biosciences, San Diego, CA, USA). See representative gating strategy (FIG. 25).
(§2) To further augment the antitumor activity of the CD38-CAR NK cells, we explored combination therapy with ATRA. ATRA is a differentiation agent that upregulates CD38 expression in many cell types. Across cell lines of AML, MM, and BL, we observed variable responses in CD38 expression after treatment with 10 nM ATRA for 48 hours (FIG. 20A). […] Thus, ATRA appears to have a cell line dependent effect on the increase in CD38 surface density and sensitivity to CAR NK cell killing (FIG. 20A, 20C).

[4] = tested on: MM cell lines; assay: as above; format: cell-based, human; settings: intermediate to high CD38-expressing MM cell lines, 10 nM ATRA for 48 hours
From the text: as §1, §2

[5] = tested on: BL; assay: as above; format: cell-based, human; settings: high CD38-expressing BL, 10 nM ATRA for 48 hours
From the text: as §1, §2

[6] = tested on: MV4-11; assay: 4-hour calcein AM cytotoxicity assay; format: cell-based, human; settings: MV4-11 (AML), 4-hour assay
Description: (§3) CSTX002 feeder cells, derived from K562 and transduced to express membrane-bound IL-21 and 4-1BBL (referred to hereafter as FC21) were cultured in RMPI 1640 media containing 10% fetal bovine serum (FBS) at 37° C., 5% CO2. FC21 were treated with 100 Gy x-ray irradiation (Faxitron, Tucson AZ) prior to coculture with NK cells. Human AML cell line MV4-11, MM cell lines MM1S and H929, and BL cell lines Daudi and Raji were purchased from American type culture collection (ATCC). Primary human AML cells (AML10) were obtained from a pediatric patient with relapsed M5 AML and passaged in NOD-SCID mice. Primary human AML, Pre-T ALL, T-PLL, MM, and HSTCL were obtained from the Ohio State University Comprehensive Cancer Center Leukemia Tissue Bank. Tumor cell lines were cultured in RPMI 1640 media plus Glutamax, 10% FBS and routinely tested for mycoplasma contamination. Anonymized human buffy coats were obtained from the American Red Cross of Ohio (Columbus, OH, USA) as healthy donor lymphocyte source material, designated not human subjects research by the institutional review board.
(§4) 4-hour cytotoxicity assays were performed using calcein AM (Fisher Scientific, Hampton, NH). Briefly, target tumor cells were stained with 2 μg/mL calcein AM and co-cultured with effector cells at the indicated Effector:Target ratios. After 4 hours, culture supernatant was assessed by fluorimetry and percent specific lysis calculated using maximum and minimum controls. Cytotoxicity is plotted as percent specific lysis.

[7] = tested on: H929; assay: 4-hour calcein AM cytotoxicity assay; format: cell-based, human; settings: H929 (MM), 4-hour assay
Description: as §3, §4

[8] = tested on: Raji; assay: 4-hour calcein AM cytotoxicity assay; format: cell-based, human; settings: Raji (BL), 4-hour assay
Description: as §3, §4

[9] = tested on: human primary T cells; assay: CD38 and CD38-CAR expression by flow cytometry in T cells; format: cell-based; settings: T cells, 75,000 vg/cell AAV6 (FIG. 22B)
Description: Human primary T cells were isolated from donor buffy coats using RosetteSep™ Human T Cell Enrichment Cocktail (Stem Cell Technologies, Vancouver, BC, Canada) as described for NK cells. Isolated T cells were stimulated on day 0 with Human T-Activator CD3/CD28 (Thermo Fisher Scientific). Stimulated T cells were cultured in RPMI 1640 media plus Glutamax, 10% FBS at a concentration of 1.0e6 cells/mL and supplemented with 50 IU/mL human recombinant IL-7 and IL-15 (Biolegend, San Diego, CA) every 2-3 days.
Two days after cytokine activation the T cells were electroporated and transduced as described below. After transduction the cells were expanded in RPMI 1640 media plus Glutamax, 10% FBS at 1.0e6 cells/mL with IL-7 and IL-15 supplemented at 50 IU/mL every 2-3 days for up to 10 days.
CD38^KO/CD38-CAR T cells or NK cells were generated by electroporation of HiFi Cas9 Nuclease V3 (Integrated DNA Technologies, Coralville, IA) and gRNA targeting exon 1 of the CD38 gene (5-[…]) (SEQ ID NO: 1). Knock-out cells were then returned to culture media and transduced within 30 minutes with 75,000 vg/cell of Adeno-Associated Virus Type 6 (AAV6, Andelyn Biosciences) vector containing the CAR expression cassette with CD38 homology arms. […]

[10] = tested on: human primary NK cells; assay: CD38 and CD38-CAR expression by flow cytometry in NK cells; format: cell-based; settings: CAR inserted at CD38 locus, 75,000 vg/cell AAV6, seven days post-transduction (FIG. 18C)
Description: CD38^KO/CD38-CAR T cells or NK cells were generated by electroporation of HiFi Cas9 Nuclease V3 (Integrated DNA Technologies, Coralville, IA) and gRNA targeting exon 1 of the CD38 gene (5-[…]) (SEQ ID NO: 1). Knock-out cells were then returned to culture media and transduced within 30 minutes with 75,000 vg/cell of Adeno-Associated Virus Type 6 (AAV6, Andelyn Biosciences) vector containing the CAR expression cassette with CD38 homology arms.
as §1

| Molecule | live cell population of primary AML cells [1] | adverse effect on function or viability of CD38^KO NK cells [2] | CD38 expression after ATRA treatment [3] | CD38 expression after ATRA treatment [4] | CD38 expression after ATRA treatment [5] | cytotoxicity compared to wildtype cells [6] | cytotoxicity compared to wildtype cells [7] | cytotoxicity compared to wildtype cells [8] | median AAV6 transduction efficiency [9] | median AAV6 transduction efficiency [10] |
| --- | --- | --- | --- | --- | --- | --- | --- | --- | --- | --- |
| CC1=C(/C=C/C(C)=C/C=C/C(C)=C/C(=O)O)C(C)(C)CCC1 [ATRA, all-trans retinoic acid] | 77.5% | did not have any adverse effect | greatest proportional increase; also recorded: greatest increases | minor increase | no observable increase | – | – | – | – | – |
| V3: Isatuximab-based anti-CD38 second-generation CAR construct with CD3ζ, 41BB and CD8α TM/hinge, SEQ ID NO: 27/28 | – | – | – | – | – | significant increase in cytotoxicity | significant increase in cytotoxicity | significant increase in cytotoxicity | 44.4% | 60.7% |
| V4: Isatuximab-based anti-CD38 CAR construct with reversed heavy/light chain order, SEQ ID NO: 29/30 | – | – | – | – | – | significant increase in cytotoxicity | significant increase in cytotoxicity | significant increase in cytotoxicity | 35.9% | 61.9% |
